# Source: patent publication US20230365592A1 (Agios Pharmaceuticals, Inc., priority 2022, published 2023)
# Target: T1, human PAH with the R408W mutation (Homo sapiens, UniProt P00439, R408W)
# T1 construct: expressed in transfected cells
# T1 sequence (P00439 1-452 R408W): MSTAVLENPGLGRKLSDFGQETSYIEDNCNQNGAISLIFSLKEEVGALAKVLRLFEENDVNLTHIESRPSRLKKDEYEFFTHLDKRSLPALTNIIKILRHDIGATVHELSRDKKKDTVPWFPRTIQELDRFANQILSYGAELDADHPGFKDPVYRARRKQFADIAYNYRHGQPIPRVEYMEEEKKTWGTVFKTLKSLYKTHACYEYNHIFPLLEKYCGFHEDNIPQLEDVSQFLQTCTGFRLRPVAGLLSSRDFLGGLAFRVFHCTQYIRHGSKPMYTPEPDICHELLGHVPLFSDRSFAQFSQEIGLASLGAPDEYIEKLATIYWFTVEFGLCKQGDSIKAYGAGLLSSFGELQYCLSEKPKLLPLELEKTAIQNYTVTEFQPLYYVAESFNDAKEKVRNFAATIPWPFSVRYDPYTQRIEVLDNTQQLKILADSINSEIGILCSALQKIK
# Experiment: Cell Based Phenylalanine Flux Assay;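 also: after compound treatment, cells received sepiapterin plus isotope-labelled Phenylalanine for 4 hours, then labelled Tyrosine in the medium was quantified, 10-point 2-fold dilution series run in duplicate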
# Settings: A375 cells expressing R408W PAH; 24 hrs with compound, then 20 µM sepiapterin and 800 µM 13C9,15N-Phenylalanine for 4 hours; 13C-Tyrosine by LC-MS; average where tested multiple times; read-out: AC50
row,SMILES,AC50 [nM]
1,"CC1(c2nnc(-n3cnc4c3[C@@H](c3cc5ccccn5n3)NCC4)o2)CC1 (single isomer, unassigned)",1000 to 5000
2,Cc1cccn2nc(C3c4nc[nH]c4CCN3c3nnc(-c4cccnc4)o3)cc12 (centres unmarked),1000 to 5000
3,Fc1cccc2cc(C3c4nc[nH]c4CCN3c3nnc(C(F)F)o3)nn12 (centres unmarked),1000 to 5000
4,O=C(c1cnc(-c2cnccn2)o1)N1CCc2[nH]cnc2C1c1cc2ccccn2n1 (centres unmarked),> 5000
5,Cn1cc(-c2ncc(C(=O)N3CCc4[nH]cnc4C3c3cc4c(F)cccn4n3)o2)cn1 (centres unmarked),> 5000

# Now from value to molecule:
row,AC50 [nM],SMILES
1,> 5000,CN(C)Cc1nnc(C(=O)N2CCc3[nH]cnc3C2c2cc3ccccn3n2)o1 (centres unmarked)
2,1000 to 5000,"CN(C)C(=O)c1nnc(N2CCc3[nH]cnc3[C@H]2c2cc3c(C(F)(F)F)cccn3n2)o1 (single isomer, unassigned)"
3,1000 to 5000,O=C(c1ocnc1CC(F)F)N1CCc2[nH]cnc2C1c1cc2ccccn2n1 (centres unmarked)

# Same assay, conditions: A375 cells expressing human PAH R408W; 24 hrs compound incubation; 13C-Tyrosine by LC-MS; average where tested multiple times; read-out: AC50
row,SMILES,AC50 [nM]
1,"Clc1cccn2nc([C@H]3c4nc[nH]c4CCN3c3nnc(C4CCC4)o3)cc12 [Example 1830, (R)-2-(4-(4-chloropyrazolo[1,5-a]pyridin-2-yl)-6,7-dihydro-1H-imidazo[4,5-c]pyridin-5(4H)-yl)-5-cyclobutyl-1,3,4-oxadiazole]",> 5000
2,"c1cnc(N2CCc3[nH]cnc3[C@@H]2c2cc3c(C4CC4)cccn3n2)nc1 [Example 2173, (R)-4-(4-cyclopropylpyrazolo[1,5-a]pyridin-2-yl)-5-(pyrimidin-2-yl)-4,5,6,7-tetrahydro-1H-imidazo[4,5-c]pyridine]",1000 to 5000
3,"FC(F)(F)Oc1cccn2nc([C@@H]3c4nc[nH]c4CCN3c3ncc(C(F)(F)F)cn3)cc12 [Example 2316, (S)-4-(4-(trifluoromethoxy)pyrazolo[1,5-a]pyridin-2-yl)-5-(5-(trifluoromethyl)pyrimidin-2-yl)-4,5,6,7-tetrahydro-1H-imidazo[4,5-c]pyridine]",< 500
4,"FC(F)Oc1cccn2nc([C@H]3c4nc[nH]c4CCN3c3ncccn3)cc12 [Example 2255, (R)-4-(4-(difluoromethoxy)pyrazolo[1,5-a]pyridin-2-yl)-5-(pyrimidin-2-yl)-4,5,6,7-tetrahydro-1H-imidazo[4,5-c]pyridine]",1000 to 5000

# More lines, now with the values ahead:
row,AC50 [nM],SMILES
1,500 to 1000,"O=C(c1nnc(-c2c(F)cccc2F)o1)N1CCc2[nH]cnc2C1c1cc2ccccn2n1 (centres unmarked) [Example 2524, (5-(2,6-difluorophenyl)-1,3,4-oxadiazol-2-yl)(4-(pyrazolo[1,5-a]pyridin-2-yl)-6,7-dihydro-1H-imidazo[4,5-c]pyridin-5(4H)-yl)methanone]"
2,500 to 1000,"Cc1cccn2nc([C@@H]3c4nc[nH]c4CCN3C(=O)c3nnc(-c4cncnc4)o3)cc12 [Example 1972, (S)-(4-(4-methylpyrazolo[1,5-a]pyridin-2-yl)-1,4,6,7-tetrahydro-5H-imidazo[4,5-c]pyridin-5-yl)(5-(pyrimidin-5-yl)-1,3,4-oxadiazol-2-yl)methanone]"
3,> 5000,"O=C(c1nnc(-c2ncccc2F)o1)N1CCc2[nH]cnc2[C@@H]1c1cc2c(C3CC3)cccn2n1 [Example 1854, (R)-(4-(4-cyclopropylpyrazolo[1,5-a]pyridin-2-yl)-1,4,6,7-tetrahydro-5H-imidazo[4,5-c]pyridin-5-yl)(5-(3-fluoropyridin-2-yl)-1,3,4-oxadiazol-2-yl)methanone]"

# Same assay, conditions: A375 cells expressing human R408W PAH; 24 hrs compound incubation; 13C-Tyrosine by LC-MS; average where tested multiple times; read-out: AC50
row,SMILES,AC50 [nM]
1,"Cc1cccn2nc([C@H]3c4nc[nH]c4CCN3C(=O)c3oc(-c4cnn(C)c4)nc3C(F)F)cc12 [Example 1009, (R)-(4-(difluoromethyl)-2-(1-methyl-1H-pyrazol-4-yl)oxazol-5-yl)(4-(4-methylpyrazolo[1,5-a]pyridin-2-yl)-6,7-dihydro-1H-imidazo[4,5-c]pyridin-5(4H)-yl)methanone]",500 to 1000
2,"C[C@@H](O)c1nc(C(F)F)c(C(=O)N2CCc3[nH]cnc3[C@H]2c2cc3cccc(C(F)(F)F)n3n2)o1 [Example 1180, (4-(difluoromethyl)-2-((R)-1-hydroxyethyl)oxazol-5-yl)((S)4-(7-(trifluoromethyl)pyrazolo[1,5-a]pyridin-2-yl)-6,7-dihydro-1H-imidazo[4,5-c]pyridin-5(4H)-yl)methanone]",500 to 1000
3,"O=C(c1cnco1)N1CCc2[nH]cnc2[C@H]1c1cc2c(C(F)(F)F)cccn2n1 [Example 1158, (S)-oxazol-5-yl(4-(4-(trifluoromethyl)pyrazolo[1,5-a]pyridin-2-yl)-6,7-dihydro-1H-imidazo[4,5-c]pyridin-5(4H)-yl)methanone]",500 to 1000
4,"CN(C)c1ccc2c(C(=O)N3CCc4[nH]cnc4[C@H]3c3cc4c(Cl)cccn4n3)cnn2c1 [Example 1792, (S)-(4-(4-chloropyrazolo[1,5-a]pyridin-2-yl)-6,7-dihydro-1H-imidazo[4,5-c]pyridin-5(4H)-yl)(6-(dimethylamino)pyrazolo[1,5-a]pyridin-3-yl)methanone]",< 500
5,"O=C(c1cnn2ccccc12)N1CCc2[nH]cnc2[C@@H]1c1cc2c(F)cccn2n1 [Example 1288, (R)-(4-(4-fluoropyrazolo[1,5-a]pyridin-2-yl)-6,7-dihydro-1H-imidazo[4,5-c]pyridin-5(4H)-yl)(pyrazolo[1,5-a]pyridin-3-yl)methanone]",500 to 1000
6,"COc1ccc2c(C(=O)N3CCc4[nH]cnc4[C@H]3c3cc4c(C(F)F)cccn4n3)cnn2c1 [Example 1676, (S)-(4-(4-(difluoromethyl)pyrazolo[1,5-a]pyridin-2-yl)-6,7-dihydro-1H-imidazo[4,5-c]pyridin-5(4H)-yl)(6-methoxypyrazolo[1,5-a]pyridin-3-yl)methanone]",500 to 1000
7,"O=C(c1cnn2cc(C3CC3)ccc12)N1CCc2[nH]cnc2[C@@H]1c1cc2cccc(F)n2n1 [Example 1791, (R)-(6-cyclopropylpyrazolo[1,5-a]pyridin-3-yl)(4-(7-fluoropyrazolo[1,5-a]pyridin-2-yl)-6,7-dihydro-1H-imidazo[4,5-c]pyridin-5(4H)-yl)methanone]",> 5000
8,"FC(F)(F)c1cnc(N2CCc3[nH]cnc3[C@@H]2c2cc3c(Cl)cccn3n2)nc1 [Example 1781, (R)-4-(4-chloropyrazolo[1,5-a]pyridin-2-yl)-5-(5-(trifluoromethyl)pyrimidin-2-yl)-4,5,6,7-tetrahydro-1H-imidazo[4,5-c]pyridine]",> 5000

# Results, then the molecule that gave them:
row,AC50 [nM],SMILES
1,> 5000,"O=C(c1cnco1)N1CCc2[nH]cnc2[C@@H]1c1cc2c(Cl)cccn2n1 [Example 767, (R)-(4-(4-chloropyrazolo[1,5-a]pyridin-2-yl)-6,7-dihydro-1H-imidazo[4,5-c]pyridin-5(4H)-yl)(oxazol-5-yl)methanone]"
2,< 500,"O=C(c1nnc(-c2ccn(C(F)F)n2)o1)N1CCc2[nH]cnc2[C@H]1c1cc2cccc(F)n2n1 [Example 1405, (S)-(5-(1-(difluoromethyl)-1H-pyrazol-3-yl)-1,3,4-oxadiazol-2-yl)(4-(7-fluoropyrazolo[1,5-a]pyridin-2-yl)-6,7-dihydro-1H-imidazo[4,5-c]pyridin-5(4H)-yl)methanone]"
3,> 5000,"Cc1cccn2nc([C@H]3c4nc[nH]c4CCN3C(=O)c3nnc(-c4cnn(C)c4)o3)cc12 [Example 749, (R)-(5-(1-methyl-1H-pyrazol-4-yl)-1,3,4-oxadiazol-2-yl)(4-(4-methylpyrazolo[1,5-a]pyridin-2-yl)-6,7-dihydro-1H-imidazo[4,5-c]pyridin-5(4H)-yl)methanone]"
4,500 to 1000,"Cc1cccn2nc([C@@H]3c4nc[nH]c4CCN3C(=O)c3nc(C4CC4)nn3C)cc12 [Example 1058, (S)-(3-cyclopropyl-1-methyl-1H-1,2,4-triazol-5-yl)(4-(4-methylpyrazolo[1,5-a]pyridin-2-yl)-6,7-dihydro-1H-imidazo[4,5-c)pyridin-5(4H)-yl)methanone]"
5,> 5000,"Cn1ccc(-c2nnc(C(=O)N3CCc4[nH]cnc4[C@@H]3c3cc4cccc(C(F)F)n4n3)o2)n1 [Example 1439, (R)-(4-(7-(difluoromethyl)pyrazolo[1,5-a]pyridin-2-yl)-6,7-dihydro-1H-imidazo[4,5-c]pyridin-5(4H)-yl)(5-(1-methyl-1H-pyrazol-3-yl)-1,3,4-oxadiazol-2-yl)methanone]"
6,< 500,"CC(O)c1nc(Br)c(C(=O)N2CCc3[nH]cnc3[C@H]2c2cc3ccccn3n2)o1 (single isomer, unassigned) [Example 996]"
7,1000 to 5000,"O=C(c1nnc(-c2ccn(C(F)F)n2)o1)N1CCc2[nH]cnc2[C@@H]1c1cc2cccc(F)n2n1 [Example 1404, (R)-(5-(1-(difluoromethyl)-1H-pyrazol-3-yl)-1,3,4-oxadiazol-2-yl)(4-(7-fluoropyrazolo[1,5-a]pyridin-2-yl)-6,7-dihydro-1H-imidazo[4,5-c]pyridin-5(4H)-yl)methanone]"
8,< 500,"Cc1ncccc1-c1nnc(C(=O)N2CCc3[nH]cnc3[C@H]2c2cc3c(C(F)(F)F)cccn3n2)o1 [Example 1304, (S)-(5-(2-methylpyridin-3-yl)-1,3,4-oxadiazol-2-yl)(4-(4-(trifluoromethyl)pyrazolo[1,5-a]pyridin-2-yl)-6,7-dihydro-1H-imidazo[4,5-c]pyridin-5(4H)-yl)methanone]"
9,< 500,"Cc1nnc(C(=O)N2CCc3[nH]cnc3[C@H]2c2cc3c(Cl)cccn3n2)o1 [Example 1106, (S)-(4-(4-chloropyrazolo[1,5-a]pyridin-2-yl)-6,7-dihydro-1H-imidazo[4,5-c]pyridin-5(4H)-yl)(5-methyl-1,3,4-oxadiazol-2-yl)methanone]"
